What was measured:
[1] = refractive index (other wavelength) (dimensionless); conditions: 101 kPa, Liquid, Wavelength=632.8 nm, Newport model 1825-C
[2] = refractive index (other wavelength) (dimensionless); xn = mol fraction of the nth substance listed; conditions: 305.5 K, 101 kPa, Liquid, Wavelength=632.8 nm, Newport model 1825-C

N#Cc1ccccc1 [benzonitrile]
[1]
Conditions	refractive index
301.4 K	1.521
302.96 K	1.5202
304.8 K	1.5194
306.42 K	1.5186
307.83 K	1.5179
309.65 K	1.517

CCCCCCCCCCCCCCCCCC [octadecane]
[1]
Conditions	refractive index
301.97 K	1.4339
303.42 K	1.4333
304.68 K	1.4328
306.38 K	1.4321
307.84 K	1.4315
309.28 K	1.4307

CCCCCCCCCCCCCCCCCC [octadecane] + N#Cc1ccccc1
[2]
Conditions	refractive index
x2 = 0.0996	1.4316
x2 = 0.1986	1.4362
x2 = 0.2992	1.4398
x2 = 0.4025	1.4447
x2 = 0.4955	1.4499
x2 = 0.5947	1.4567
x2 = 0.7985	1.4777
x2 = 0.8876	1.4917

Source: the NIST ThermoML archive (doi:10.1016/j.jct.2005.05.012)
